Eight molecules from patent US20100099673A1, “DECAHYDROQUINOLINE ANALOGS AS CB2 RECEPTOR MODULATORS, USEFUL IN THE TREATMENT OF PAIN, RESPIRATORY AND NON-RESPIRATORY DISEASES” (priority 2007, published 2010) can be followed below.

One experiment concerns the target human CB2 (Homo sapiens, UniProt P34972). The experiment in a line: Cyclic AMP assay (HTRF), CHO cells expressing human CB2. The class given is cell-based. Conditions: for Emax: read-out: CB2 Emax. As to the method:
(§1) Chinese Hamster Ovary cells (CHO) expressing human CB1 or human CB2 (3.3×10^5 cells/ml) were preincubated for 15 min at room temperature with tested agonist and 3-isobutyl-1-methylxanthine (IBMX; 200 μM) in phosphate buffered saline containing 1 mg/ml BSA (assay buffer) followed by 30 min incubation with forskolin in a total volume of 10 μl. The optimal forskolin concentration for each cell line was established in a separate experiment and adjusted to stimulate 70% of maximal cAMP response. cAMP content was measured using an HTRF assay (CisBio) according to the manufacturer's two step protocol.
(§2) In this assay, compounds of the invention have an IP ranging from 1 nM to >17000 nM. The Examples below have an IP ranging from 1 nM to >17000 nM.

The next experiment addresses human CB1 (Homo sapiens, UniProt P21554). The experiment in a line: Cyclic AMP assay (HTRF), CHO cells expressing human CB1. The class given is cell-based. As to the method: as §1, §2
(In TR-FRET formats the signal depends on donor and acceptor labels being close together.)

Where [1] appears, read: IP of agonist in forskolin-stimulated cAMP HTRF assay, CHO cells expressing human CB2, read-out: CB2 (HTRF).
The mark [2] stands for this setting: forskolin-stimulated cAMP HTRF assay, CHO cells expressing human CB2.
[3] abbreviates: IP of agonist in forskolin-stimulated cAMP HTRF assay, CHO cells expressing human CB1, read-out: CB1 (HTRF).

pEC50: −log10 of the molar value. Where two headings read alike, the source gives them in different places. Bounds are passed on as bounds.

Sequence of human CB1 (P21554 whole entry): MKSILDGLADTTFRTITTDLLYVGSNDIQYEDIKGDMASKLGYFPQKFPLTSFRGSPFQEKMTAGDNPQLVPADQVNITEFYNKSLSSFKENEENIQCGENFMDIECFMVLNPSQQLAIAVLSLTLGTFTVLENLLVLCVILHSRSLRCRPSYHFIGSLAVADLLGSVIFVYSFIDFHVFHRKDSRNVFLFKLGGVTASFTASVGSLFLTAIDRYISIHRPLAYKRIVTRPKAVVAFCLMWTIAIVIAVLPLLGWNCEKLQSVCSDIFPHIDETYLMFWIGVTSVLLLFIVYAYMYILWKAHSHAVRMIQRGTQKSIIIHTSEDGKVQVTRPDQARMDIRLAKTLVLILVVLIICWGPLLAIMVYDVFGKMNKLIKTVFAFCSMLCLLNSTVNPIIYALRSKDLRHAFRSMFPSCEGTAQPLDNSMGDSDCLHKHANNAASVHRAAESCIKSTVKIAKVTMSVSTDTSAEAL
Sequence of human CB2 (P34972 whole entry): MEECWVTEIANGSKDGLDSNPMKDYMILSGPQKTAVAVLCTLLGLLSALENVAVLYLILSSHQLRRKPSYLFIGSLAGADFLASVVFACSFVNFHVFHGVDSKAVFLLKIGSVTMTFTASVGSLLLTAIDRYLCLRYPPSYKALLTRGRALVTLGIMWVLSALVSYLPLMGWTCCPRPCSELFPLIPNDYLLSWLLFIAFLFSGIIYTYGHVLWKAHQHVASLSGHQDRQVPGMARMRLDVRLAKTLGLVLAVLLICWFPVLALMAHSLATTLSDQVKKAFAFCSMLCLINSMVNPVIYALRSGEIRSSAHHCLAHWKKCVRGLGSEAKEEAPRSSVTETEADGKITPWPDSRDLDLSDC

Turning to `O=C(c1ccon1)N1CC[C@](O)(c2ccccc2)[C@H]2CCCC[C@H]21` (single isomer, unassigned) [Example 131, 1-(isoxazol-3-ylcarbonyl)-4-phenyldecahydroquinolin-4-ol], the pEC50 on human CB2 (setting [1]) was 7.43; on human CB1 (setting [3]) it was less than 4.77. In addition, the Emax on human CB2 (setting [2]) was 100%.

Turning to `O=C(c1cccnc1)N1CC[C@](O)(c2ccccc2)[C@H]2CCCC[C@H]21` (relative stereo) [Example 135, cis-4-phenyl-1-(pyridin-3-ylcarbonyl)decahydroquinolin-4-ol], the pEC50 on human CB2 (setting [1]) is 8.00; at human CB1 (setting [3]), 5.17. Besides, the maximum response (Emax) on human CB2 (setting [2]) amounted to 100%.

In the case of `Cn1cc(S(=O)(=O)N2CC[C@](O)(c3ccccc3)[C@H]3CCCC[C@H]32)c(C(F)(F)F)n1` (stereo in doubt) [Example 289, 1-{[1-methyl-3-(trifluoromethyl)-1h-pyrazol-4-yl]sulfonyl}-4-phenyldecahydroquinolin-4-ol], the pEC50 on human CB2 (setting [1]) is 7.39; at human CB1 (setting [3]) it was less than 4.77. In addition, the Emax on human CB2 (setting [2]) was 101%.

Regarding `O=C(Nc1cccnc1)N1CC[C@](O)(c2ccccc2)[C@H]2CCCC[C@H]21` [Example 291, 4-hydroxy-4-phenyl-n-pyridin-3-yloctahydroquinoline-1(2H)-carboxamide], the Emax at human CB2 (CHO) came to 76%. Also, the pEC50 was 5.96 on human CB2 (setting [1]) and less than 4.77 on human CB1 (setting [3]).

Regarding `O[C@]1(c2ccccc2)CCN(Cc2n[nH]c3ccccc23)[C@@H]2CCCC[C@@H]21` (stereo in doubt) [Example 274, 1-(1H-indazol-3-ylmethyl)-4-phenyldecahydroquinolin-4-ol], the values for the pEC50 on human CB2 and at human CB1 were 7.72 and less than 4.77, respectively. Besides, the Emax on human CB2 (CHO) came out at 102%.

Consider `CC(C)(O)c1ccnc(N2CC[C@](O)(c3ccccc3)[C@H]3CCCC[C@H]32)c1` (relative stereo) [Example 287, (cis)-1-[4-(1-hydroxy-1-methylethyl)pyridin-2-yl]-4-phenyldecahydroquinolin-4-ol], for which the pEC50 was 8.89 at human CB2 (setting [1]) and 4.98 at human CB1 (setting [3]). Besides, at human CB2 (setting [2]), the maximal effect (Emax) amounted to 99%.

As for `O=C(c1ccccc1)N1CCC(O)(Cc2ccccc2)[C@H]2CCCC[C@@H]21` (stereo partly shown) [Example 260, 1-benozyl-4-benzyldecahydroquinolin-4-ol], the pEC50 at human CB2 (setting [1]) is 7.05. Also, the maximal effect (Emax) at human CB2 (setting [2]) stood at 93%.

In the case of `O=C(c1ccccc1)N1CCC(O)(c2cccnc2)[C@H]2CCCC[C@@H]21` (stereo in doubt) [Example 258, 1-benzoyl-4-pyridin-3-yldecahydroquinolin-4-ol], on human CB2 (setting [1]), the pEC50 is 6.03. Also, the maximal effect (Emax) on human CB2 (setting [2]) is 86%.

By Emax is commonly meant the maximal effect, on the per cent scale that the assay sets.
